Data: patent US7109186B2 (Bristol-Myers Squibb Company, priority 2002, dated 2006)

How the values were obtained:
HIV-integrase = target: T1, HIV-integrase (Human immunodeficiency virus type 1 group M subtype B, UniProt P04585); experiment: HIV integrase SPA integration assay (biotin-labeled substrate DNA on streptavidin SPA beads, P33-labeled target DNA); assay type: biochemical; conditions: percent inhibition of HIV-integrase in the presence of 20 μM of compound
T1 construct: 0.26 ng of recombinant integrase was incubated with the beads for 90 min at 37 C
Procedure: For each reaction, 5 pmole of biotin labeled substrate DNA was bound to 100 ug of Streptavidin coated PVT SPA beads (Amersham Pharmacia Biotech). 0.26 ng of recombinant integrase was incubated with the beads for 90 min at 37 C. Unbound enzyme was removed by washing the complex followed by addition of inhibitors and 0.1 fmol of P33 labeled target DNA. Reaction was stopped by adding EDTA to a final concentration of 10 mM. Samples were counted in TopCountNXT (Packard) and the CPM was used as a measure of integration. Reaction condition was as described in A. Engelman and R. Craigie, J. Virol. 69, 5908–5911 (1995). The sequences of substrate and target DNA were described in Nucleic Acid Research 22, 1121–1122 (1994).

Row | SMILES | inhibition at 20 µM (HIV-integrase) [%] | melting point
1 | CN1CC(C(=O)N(C)C(Cc2ccc(Cl)cc2)Cc2ccc(Cl)cc2)=C(O)C1=O [Compound 75, 4-Hydroxy-1-methyl-5-oxo-2,5-dihydro-1H-pyrrole-3-carboxylic acid [1-(4-chloro-benzyl)-2-(4-chloro-phenyl)-ethyl]-methyl-amide] | 96.5 | 152 to 154 °C
2 | CON(Cc1ccc(F)c(C)c1)C(=O)C1=C(O)C(=O)N(C)C1 [Compound 64, 4-Hydroxy-1-methyl-5-oxo-2,5-dihydro-1H-pyrrole-3-carboxylic acid (4-fluoro-3-methyl-benzyl)-methoxy-amide] | 99.7 | 160 to 164 °C
3 | CN1CC(C(=O)N(Cc2ccc(F)cc2)c2ccc(Cl)c(Cl)c2)=C(O)C1=O [Compound 78, 4-Hydroxy-1-methyl-5-oxo-2,5-dihydro-1H-pyrrole-3-carboxylic acid (3,4-dichloro-phenyl)-(4-fluoro-benzyl)-amide] | 99.9 | 195 °C (dec.)
4 | CN1CC(C(=O)N(Cc2ccc(F)cc2)OCC(=O)O)=C(O)C1=O [Compound 71, [(4-Fluoro-benzyl)-(4-hydroxy-1-methyl-5-oxo-2,5-dihydro-1H-pyrrole-3-carbonyl)-aminooxy]-acetic acid] | 99.9 | 147 to 150 °C
5 | CON(Cc1ccc(F)cc1)C(=O)C1=C(O)C(=O)N(C)C1 |  | 125 °C (dec.)
6 | CN(Cc1ccc(Cl)c(Cl)c1)C(=O)C1=C(O)C(=O)N(C2CC2)C1 [Compound 14, 1-Cyclopropyl-4-hydroxy-5-oxo-2,5-dihydro-1H-pyrrole-3-carboxylic acid (3,4-dichloro-benzyl)-methyl-amide] | 99.7 | 163 to 164 °C
7 | CON(Cc1ccc(Cl)cc1)C(=O)C1=C(O)C(=O)N(C)C1 [Compound 51, 4-Hydroxy-1-methyl-5-oxo-2,5-dihydro-1H-pyrrole-3-carboxylic acid (4-chloro-benzyl)-methoxy-amide] | 99.9 | 165 °C (dec.)
8 | CON(Cc1ccc(Cl)c(Cl)c1)C(=O)C1=C(O)C(=O)N(C)C1 [Compound 47, 4-Hydroxy-1-methyl-5-oxo-2,5-dihydro-1H-pyrrole-3-carboxylic acid (3,4-dichloro-benzyl)-methoxy-amide] | 99.9 | 149 °C
9 | CON(Cc1ccc(F)c(F)c1)C(=O)C1=C(O)C(=O)N(C)C1 [Compound 54, 4-Hydroxy-1-methyl-5-oxo-2,5-dihydro-1H-pyrrole-3-carboxylic acid (3,4-difluoro-benzyl)-methoxy-amide] | 99.9 | 146 to 147 °C
10 | CC(C)CON(Cc1ccc(F)cc1)C(=O)C1=C(O)C(=O)N(C)C1 [Compound 58, 4-Hydroxy-1-methyl-5-oxo-2,5-dihydro-1H-pyrrole-3-carboxylic acid (4-fluoro-benzyl)-isobutoxy-amide] | 99.5 | 96 to 97 °C
11 | COc1ccc(CN(OC)C(=O)C2=C(O)C(=O)N(C)C2)cc1 [Compound 55, 4-Hydroxy-1-methyl-5-oxo-2,5-dihydro-1H-pyrrole-3-carboxylic acid methoxy-(4-methoxy-benzyl)-amide] | 99.9 | 135 to 137 °C
12 | CON(Cc1ccc(C(=O)O)cc1)C(=O)C1=C(O)C(=O)N(C)C1 [Compound 68, 4-{[(4-Hydroxy-1-methyl-5-oxo-2,5-dihydro-1H-pyrrole-3-carbonyl)-methoxy-amino]-methyl}-benzoic acid] | 12 | 196 to 197 °C
13 | CON(Cc1ccc(F)c(C#N)c1)C(=O)C1=C(O)C(=O)N(C)C1 [Compound 61, 4-Hydroxy-1-methyl-5-oxo-2,5-dihydro-1H-pyrrole-3-carboxylic acid (3-cyano-4-fluoro-benzyl)-methoxy-amide] | 99.3 | 
14 | CON(Cc1ccc(C(F)(F)F)cc1)C(=O)C1=C(O)C(=O)N(CCN2CCOCC2)C1 |  | 119 °C (dec.)
15 | CC(C)N1CC(C(=O)N(C)Cc2ccc(F)cc2)=C(O)C1=O [Compound 11, 4-Hydroxy-1-isopropyl-5-oxo-2,5-dihydro-1H-pyrrole-3-carboxylic acid (4-fluoro-benzyl)-methyl-amide] | 99.9 | 
16 | CON(Cc1ccccc1OC(C)C)C(=O)C1=C(O)C(=O)N(C)C1 [Compound 66, 4-Hydroxy-1-methyl-5-oxo-2,5-dihydro-1H-pyrrole-3-carboxylic acid (2-isopropoxy)-methoxy-amide] | 99 | 
17 | CN(Cc1ccc(Cl)c(Cl)c1)C(=O)C1=C(O)C(=O)N(CCN2CCOCC2)C1 [Compound 13, 4-Hydroxy-1-(2-morpholin-4-yl-ethyl)-5-oxo-2,5-dihydro-1H-pyrrole-3-carboxylic acid (3,4-dichloro-benzyl)-methyl-amide] | 99.9 | 
18 | CN1CC(C(=O)N(C)CCCc2ccc(F)cc2)=C(O)C1=O |  | 129 °C (dec.)
19 | CN1CC(C(=O)N(C)Cc2ccc(Cl)c(Cl)c2)=C(O)C1=O [Compound 12, 4-Hydroxy-1-methyl-5-oxo-2,5-dihydro-1H-pyrrole-3-carboxylic acid (3,4-dichloro-benzyl)-methyl amide] | 99.9 | 

Row | SMILES | inhibition at 20 µM (HIV-integrase) [%] | melting point
20 | CN(Cc1ccc(F)cc1)C(=O)C1=C(O)C(=O)N(CCc2ccc(Cl)cc2Cl)C1 [Compound 6, 1-[2-(2,4-Dichloro-phenyl)-ethyl]-4-hydroxy-5-oxo-2,5-dihydro-1H-pyrrole-3-carboxylic acid (4-fluoro-benzyl)-methyl-amide] | 99.9 | 
21 | CN1CC(C(=O)N(C)Cc2ccc(C(F)(F)F)cc2)=C(O)C1=O |  | 126 to 128 °C
22 | CN(Cc1ccc(F)cc1)C(=O)C1=C(O)C(=O)N(CCCc2ccccc2)C1 [Compound 10, 4-Hydroxy-5-oxo-1-(3-phenyl-propyl)-2,5-dihydro-1H-pyrrole-3-carboxylic acid (4-fluoro-benzyl)-methyl-amide] | 99.9 | 
23 | CON(Cc1ccc(F)cc1)C(=O)C1=C(O)C(=O)N(CCN2CCNCC2)C1 [Compound 46, 4-Hydroxy-5-oxo-1-(2-piperazin-1-yl-ethyl)-2,5-dihydro-1H-pyrrole-3-carboxylic acid (4-fluoro-benzyl)-methoxy-amide] | 99.3 | 
24 | CC(=O)NCCN1CC(C(=O)N(C)Cc2ccc(Cl)c(Cl)c2)=C(O)C1=O [Compound 27] | 99.9 | 
25 | CN(Cc1ccc(F)cc1)C(=O)C1=C(O)C(=O)N(CCc2ccncc2)C1 [Compound 7, 4-Hydroxy-5-oxo-1-(2-pyridin-4-yl-ethyl)-2,5-dihydro-1H-pyrrole-3-carboxylic acid (4-fluoro-benzyl)-methyl-amide] | 99.9 | 
26 | CON(Cc1ccc(C(F)(F)F)cc1)C(=O)C1=C(O)C(=O)N(C)C1 |  | 145 °C (dec.)
27 | CN(Cc1ccc(Cl)c(Cl)c1)C(=O)C1=C(O)C(=O)N(C(CC(N)=O)C(=O)O)C1 (stereo not shown) [Compound 25, 2-{4-[(3,4-Dichloro-benzyl)-methyl-carbamoyl]-3-hydroxy-2-oxo-2,5-dihydro-pyrrol-1-yl}-succinamic acid] | 99.9 | 
28 | CNCCN1CC(C(=O)N(C)Cc2ccc(Cl)c(Cl)c2)=C(O)C1=O [Compound 15, 4-Hydroxy-1-(2-methylamino-ethyl)-5-oxo-2,5-dihydro-1H-pyrrole-3-carboxylic acid (3,4-dichloro-benzyl)-methyl-amide] | 99.7 | 
29 | CN(Cc1ccc(Cl)c(Cl)c1)C(=O)C1=C(O)C(=O)N(Cc2ccncc2)C1 [Compound 21] | 99.9 | 
30 | CN(Cc1ccc(F)cc1)C(=O)C1=C(O)C(=O)N(CCc2ccc(F)cc2)C1 [Compound 9, 1-[2-(4-Fluoro-phenyl)-ethyl]-4-hydroxy-5-oxo-2,5-dihydro-1H-pyrrole-3-carboxylic acid (4-fluoro-benzyl)-methyl amide] | 99.9 | 
31 | COC(=O)c1ccc(CN(OC)C(=O)C2=C(O)C(=O)N(C)C2)cc1 [Compound 67, 4-{[(4-Hydroxy-1-methyl-5-oxo-2,5-dihydro-1H-pyrrole-3-carbonyl)-methoxy-amino]-methyl}-benzoic acid methyl ester] | 96.5 | 
32 | CN1CC(C(=O)N(Cc2ccc(F)cc2)Cc2ccc(F)cc2)=C(O)C1=O [Compound 76, 4-Hydroxy-1-methyl-5-oxo-2,5-dihydro-1H-pyrrole-3-carboxylic acid bis-(4-fluoro-benzyl)-amide] | 96 | 
33 | CON(Cc1ccc(F)cc1C(F)(F)F)C(=O)C1=C(O)C(=O)N(C)C1 |  | 167 °C (dec.)
34 | CN(Cc1ccc(Cl)c(Cl)c1)C(=O)C1=C(O)C(=O)N(CC(C)(C)C)C1 [Compound 16, 1-(2,2-Dimethyl-propyl)-4-hydroxy-5-oxo-2,5-dihydro-1H-pyrrole-3-carboxylic acid (3,4-dichloro-benzyl)-methyl-amide] | 99.9 | 
35 | CON(CCCc1ccc(Cl)c(Cl)c1)C(=O)C1=C(O)C(=O)N(C)C1 |  | 106 to 108 °C
36 | COC(=O)CCN1CC(C(=O)N(C)Cc2ccc(Cl)c(Cl)c2)=C(O)C1=O [Compound 34, 3-{4-[(3,4-Dichloro-benzyl)-methyl-carbamoyl]-3-hydroxy-2-oxo-2,5-dihydro-pyrrol-1-yl}-propionic acid methyl ester] | 99.9 | 
37 | COC(=O)CCCN1CC(C(=O)N(C)Cc2ccc(Cl)c(Cl)c2)=C(O)C1=O [Compound 33] | 99.9 | 
38 | CN(Cc1ccc(Cl)c(Cl)c1)C(=O)C1=C(O)C(=O)N(CCC(=O)NC(Cc2cncn2C)C(=O)O)C1 (stereo not shown) [Compound 29] | 99.9 | 
